Experimental data as given in patent US7384757B2 (Bristol-Myers Squibb Company, priority 2004, dated 2008).
Blank lines part the entries; values can stand above or below the compound they belong to.

What was measured:
ACC and FAS = assay: ACC/FAS coupled SPA, effect of DMSO and purification reagents; format: biochemical, rat; conditions: for effect on the enzyme reaction: ACC/FAS coupled SPA, FIG. 12
Description: (§1) The [^3H]-acetyl CoA mix in the final reaction was 20 μM with 0.25 μCi per assay (specific activity of 250 μCi/μmol).
Compound Dilution: Compounds were dissolved in 100% DMSO to obtain 10 mM stock solution. A serial dilution of the compounds in 100% DMSO was made first. Then the compounds were diluted 1:33.3 in buffer to obtain 10× compound solution in 3% DMSO. From this intermediate dilution, a further 10× dilution was made in the assay, resulting 0.3% final DMSO concentration in the assay.
For screening in drug discovery, compounds are routinely dissolved in 100% DMSO and then further diluted to 1% or lower DMSO in the final assay. The effect of DMSO on the ACC/FAS coupled assay was studied. […] At 1% DMSO, the total signal decreased 25% and the S/B was reduced from 15 to 12 with a greater inhibition observed at higher concentrations. Therefore, it may be desirable to keep the final DMSO concentrations in the assay below 0.3%, and not to exceed 1%.
Buffers containing sucrose, glycerol and polyethylene glycol (PEG) were used in the purification of ACC and FAS. In addition, the purified enzymes were stored in buffers containing 20% glycerol to increase long-term stability. In view of this, the effects of glycerol, sucrose and PEG on the enzyme activities were studied with the ACC/FAS coupled SPA.

[1] = target: T1, rat acetyl CoA carboxylase 1 (rACC) (Rattus norvegicus, UniProt P11497); assay: ACC/FAS coupled scintillation proximity assay, reagent titrations (Km, Kact); format: biochemical; conditions: other reagents saturating, acetyl CoA 20 μM, 37° C.
T1 construct: from tissue; host or cells: rat liver (rats fasted 36 h, then fed a fat-free carbohydrate diet for 48 h)
Description: The sequence of addition of the solution mixtures into each well of a custom 384-well phospholipid coated FLASHPLATE™ was as follows:
Step 1: Add 35 μl of enzyme mix in assay buffer.
Step 2: Add 5 μl of 3% DMSO or 10× compound in 3% DMSO.
Step 3: Incubate at room temperature for 10 min.
Step 5: Incubate the plate at 37° C. for 2 hours.
Step 6: Count the plate in a TOPCOUNT™ NXT for 2 min/well.

[2] = target: T2, rat fatty acid synthase (rFAS) (Rattus norvegicus, UniProt P12785); assay: ACC/FAS coupled SPA, dependence of FAS activity on NADPH; format: biochemical; conditions: FAS cofactor, varied in the ACC/FAS coupled assay
T2 construct: from tissue
T2 sequence (P12785 whole entry): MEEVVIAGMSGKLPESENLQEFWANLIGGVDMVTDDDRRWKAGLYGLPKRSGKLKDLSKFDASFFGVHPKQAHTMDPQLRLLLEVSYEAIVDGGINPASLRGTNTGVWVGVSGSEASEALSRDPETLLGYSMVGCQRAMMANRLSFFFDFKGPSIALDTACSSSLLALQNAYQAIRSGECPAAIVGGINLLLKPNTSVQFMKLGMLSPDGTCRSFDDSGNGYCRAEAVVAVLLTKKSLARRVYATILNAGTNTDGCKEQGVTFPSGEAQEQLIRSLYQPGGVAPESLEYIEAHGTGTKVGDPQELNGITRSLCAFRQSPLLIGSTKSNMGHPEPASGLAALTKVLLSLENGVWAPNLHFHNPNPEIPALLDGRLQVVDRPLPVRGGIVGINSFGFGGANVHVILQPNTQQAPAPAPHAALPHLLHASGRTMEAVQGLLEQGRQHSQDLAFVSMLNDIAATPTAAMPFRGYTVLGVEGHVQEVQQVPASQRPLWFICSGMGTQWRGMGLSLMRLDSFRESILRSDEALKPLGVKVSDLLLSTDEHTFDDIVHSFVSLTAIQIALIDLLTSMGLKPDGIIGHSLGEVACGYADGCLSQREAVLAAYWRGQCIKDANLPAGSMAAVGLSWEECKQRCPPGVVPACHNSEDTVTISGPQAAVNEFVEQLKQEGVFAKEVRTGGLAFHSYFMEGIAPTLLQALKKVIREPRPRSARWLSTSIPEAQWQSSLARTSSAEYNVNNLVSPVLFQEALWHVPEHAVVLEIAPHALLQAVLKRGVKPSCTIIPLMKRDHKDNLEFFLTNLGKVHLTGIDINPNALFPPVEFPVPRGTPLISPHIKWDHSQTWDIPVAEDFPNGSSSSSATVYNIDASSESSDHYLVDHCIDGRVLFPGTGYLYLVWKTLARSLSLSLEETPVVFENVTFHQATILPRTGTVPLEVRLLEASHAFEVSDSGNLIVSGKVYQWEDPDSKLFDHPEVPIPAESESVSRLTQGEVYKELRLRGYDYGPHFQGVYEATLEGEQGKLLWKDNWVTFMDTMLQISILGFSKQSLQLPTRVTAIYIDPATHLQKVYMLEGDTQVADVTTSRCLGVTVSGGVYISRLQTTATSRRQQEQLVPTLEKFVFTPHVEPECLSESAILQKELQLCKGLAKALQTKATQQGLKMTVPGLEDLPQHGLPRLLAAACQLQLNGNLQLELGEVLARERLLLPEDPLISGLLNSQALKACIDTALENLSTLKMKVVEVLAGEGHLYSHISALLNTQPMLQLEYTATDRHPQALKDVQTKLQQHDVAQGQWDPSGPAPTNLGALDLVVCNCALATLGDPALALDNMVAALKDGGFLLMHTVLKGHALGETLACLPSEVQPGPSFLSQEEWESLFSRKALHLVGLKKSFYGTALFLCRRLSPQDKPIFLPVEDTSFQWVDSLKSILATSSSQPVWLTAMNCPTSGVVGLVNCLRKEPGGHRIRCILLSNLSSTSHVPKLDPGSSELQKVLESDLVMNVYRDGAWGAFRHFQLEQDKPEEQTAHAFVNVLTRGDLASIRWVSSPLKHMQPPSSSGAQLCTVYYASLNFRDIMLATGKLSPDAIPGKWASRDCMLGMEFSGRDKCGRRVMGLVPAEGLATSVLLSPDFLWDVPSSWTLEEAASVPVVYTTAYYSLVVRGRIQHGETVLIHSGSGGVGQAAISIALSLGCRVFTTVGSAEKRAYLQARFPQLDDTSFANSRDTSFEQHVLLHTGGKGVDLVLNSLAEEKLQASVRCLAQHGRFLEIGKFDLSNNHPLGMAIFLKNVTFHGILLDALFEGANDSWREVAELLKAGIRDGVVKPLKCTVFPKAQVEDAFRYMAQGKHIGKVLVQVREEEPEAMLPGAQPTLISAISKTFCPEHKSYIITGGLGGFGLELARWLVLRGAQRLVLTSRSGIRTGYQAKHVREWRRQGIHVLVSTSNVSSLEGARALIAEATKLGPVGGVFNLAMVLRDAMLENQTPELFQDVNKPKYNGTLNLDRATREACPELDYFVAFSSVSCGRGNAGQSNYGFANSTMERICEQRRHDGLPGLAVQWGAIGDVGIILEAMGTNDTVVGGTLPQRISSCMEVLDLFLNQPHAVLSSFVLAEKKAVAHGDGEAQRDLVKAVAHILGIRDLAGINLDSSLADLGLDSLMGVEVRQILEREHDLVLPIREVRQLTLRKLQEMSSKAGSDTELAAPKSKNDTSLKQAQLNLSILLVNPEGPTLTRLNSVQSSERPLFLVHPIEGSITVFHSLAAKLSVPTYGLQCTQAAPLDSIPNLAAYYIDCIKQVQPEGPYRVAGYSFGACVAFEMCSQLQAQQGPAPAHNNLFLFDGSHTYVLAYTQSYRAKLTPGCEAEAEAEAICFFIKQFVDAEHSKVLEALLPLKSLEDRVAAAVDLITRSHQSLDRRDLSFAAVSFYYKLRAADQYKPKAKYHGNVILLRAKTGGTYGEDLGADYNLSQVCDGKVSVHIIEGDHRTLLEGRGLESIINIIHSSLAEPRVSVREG
Description: as §1
The Km values for these FAS substrates can be determined independently. In the present study, the dependence of FAS activity on NADPH was determined by varying the cofactor concentration (FIG. 10). […] In this study, NADPH was maintained at saturating concentration of 100 μM.

[3] = system: CC(=O)SCCNC(=O)CCNC(=O)[C@H](O)C(C)(C)COP(=O)(O)OP(=O)(O)OC[C@H]1O[C@@H](n2cnc3c(N)ncnc32)[C@H](O)[C@@H]1OP(=O)(O)O; assay: purified protein, by the assay type; conditions: other: from saturation curve, other reagents saturating, 37° C., pH 7.6

Compound: C[S+](C)[O-] [DMSO]
effect on the activity of FAS or ACC (ACC and FAS; DMSO concentrations up to 0.3%): no significant effect
decrease of total signal (ACC and FAS; at 1% DMSO): 25%

Kact (half-maximal saturation value) [1]: 6.3 mM
Compound: [Cl-].[Cl-].[Mg+2] [MgCl2]

Km [2]: 28 µM
Compound: NC(=O)C1=CN([C@@H]2O[C@H](COP(=O)(O)OP(=O)(O)OC[C@H]3O[C@@H](n4cnc5c(N)ncnc54)[C@H](OP(=O)(O)O)[C@@H]3O)[C@@H](O)[C@H]2O)C=CC1 [NADPH]

Km ([1]; from saturation curve): 1700 µM
Compound: O=C([O-])O.[Na+] [NaHCO3]

Compound: OCC(O)CO [glycerol]
effect on the enzyme reaction (ACC and FAS): none of these reagents have any significant effect

Compound: OC[C@H]1O[C@@](CO)(O[C@H]2O[C@H](CO)[C@@H](O)[C@H](O)[C@H]2O)[C@@H](O)[C@@H]1O [sucrose]
effect on the enzyme reaction (ACC and FAS): none of these reagents have any significant effect

Compound: rat acetyl CoA carboxylase 1 (rACC) (Rattus norvegicus)
Km [3]: 47 µM
